# Read-outs that look alike come from different tables or passages of the source.
# How the values were obtained:
# [1] = test system: C. glabrata; assay: Minimal inhibitory concentration, planktonic cells (CLSI M27); type: cell-based, Candida glabrata; settings: Nakaseomyces glabratus, growth reduced to 50% of untreated control
# Procedure: (§1) The minimal inhibitory concentration (MIC) was determined following the standard Clinical and Laboratory Standards Institute (CLSI) protocol M27 (Rex JH, and Clinical and Laboratory Standards Institute (2008). Reference method for broth dilution antifungal susceptibility testing of yeasts: approved standard, 3rd ed. National Committee for Clinical Laboratory Standards, Wayne, Pa.) for yeast strains or the standard CLSI protocol […] (Clinical and Laboratory Standards Institute (2008). Reference method for broth dilution antifungal susceptibility testing of filamentous fungi. Clinical and Laboratory Standards Institute, Wayne, Pa.) for filamentous fungi. For yeast strains media was inoculated with an overnight culture to an OD600 of 0.001 (1^04 cells/mL). Serial dilutions of substances were added and cells were incubated at 37° C. without shaking for 48±1 h. MIC tests were performed in flat-bottom 96 well plates (Greiner Bio One, Austria) using 100 μL suspension per well sealed with gas-permeable foils. After incubation, OD490 values were measured using 96-well plate reader and growth capacity was analyzed by setting the corresponding control to 100%. Different flavones were randomly chosen and tested for their effects on planktonic cells and biofilms of C. albicans and C. glabrata to determine corresponding IC50 values (the concentration that is required to reduce growth (minimal inhibitory concentration=MIC) or biofilm formation (biofilm inhibitory concentration=BIC) to 50% compared to the untreated control).
# [2] = test system: C. glabrata biofilm; assay: Biofilm inhibition concentration (XTT); type: cell-based, Candida glabrata; settings: Nakaseomyces glabratus, read-out: BIC50
# Procedure: (§2) In short, RPMI medium was inoculated with an overnight culture to an OD (optical density) of 0.1, transferred to a U-bottom 96-well plate (MLS, Belgium) and treated with serial dilutions of substances. After the adherence phase (1 h, 37° C.), supernatant was removed, adherent cells were washed with PBS and fresh media (including substances) was added. Biofilms were then allowed to grow for 24 h at 37° C. Formed biofilms were then analyzed for their metabolic activity. Therefore, C. albicans biofilm cells were treated with CTB (cell titer Blue®; Promega, Germany), diluted 1:100 in PBS. […] Sigma, Germany or ABCR, Germany) was used instead. Thereby, biofilm cells were treated with an XTT solution (0.25 mg/mL XTT+0.1 μM menadione in PBS) at 37° C. in the dark and OD490 was measured.
# [3] = test system: C. albicans; assay: Minimal inhibitory concentration, planktonic cells (CLSI M27); type: cell-based; settings: Candida albicans, growth reduced to 50% of untreated control
# Procedure: as §1
# [4] = test system: C. albicans biofilm; assay: Biofilm inhibition concentration (CTB staining); type: cell-based; settings: Candida albicans; C. albicans biofilm formation reduced to 50% of untreated control; read-out: BIC50
# Procedure: as §2, with “The biofilm inhibition concentration (BIC) was determined as described in […] et al. (J Antimicrob Chemother 69(2014): 1035-1044). In” for “In”, “PBS. After incubation for 1 h at 37° C. in the dark fluorescence intensity was measured using a 96-well plate reader (Ex: 535, Em: 590, sens 65).” for “PBS.”, “measured. As for MIC, biofilm inhibition was analyzed by setting the corresponding control to 100%. Different flavones were randomly chosen and tested for their effects on planktonic cells and biofilms of C. albicans and C. glabrata to determine corresponding IC50 values (the concentration that is required to reduce growth (minimal inhibitory concentration=MIC) or biofilm formation (biofilm inhibitory concentration=BIC) to 50% compared to the untreated control).” for “measured.”
# [5] = test system: C. albicans; assay: Checkerboard / combination assay, growth of planktonic cells (OD490); type: cell-based, Candida albicans; settings: for antimycotic effect in combination with other known antimycotics: FIGS. 6 and 7; for effect on antifungal activity of azole antifungals (growth, OD490): flavone 6.25-25 μM with 0.1 μM miconazole or 1 μM fluconazole
# Procedure: The minimal inhibitory concentration (MIC) was determined following the standard Clinical and Laboratory Standards Institute (CLSI) protocol M27 (Rex JH, and Clinical and Laboratory Standards Institute (2008). Reference method for broth dilution antifungal susceptibility testing of yeasts: approved standard, 3rd ed. National Committee for Clinical Laboratory Standards, Wayne, Pa.) for yeast strains or the standard CLSI protocol M38 (Clinical and Laboratory Standards Institute (2008). Reference method for broth dilution antifungal susceptibility testing of filamentous fungi. Clinical and Laboratory Standards Institute, Wayne, Pa.) for filamentous fungi.
# For yeast strains media was inoculated with an overnight culture to an OD600 of 0.001 (1^04 cells/mL). Serial dilutions of substances were added and cells were incubated at 37° C. without shaking for 48±1 h.
# MIC tests were performed in flat-bottom 96 well plates (Greiner Bio One, Austria) using 100 μL suspension per well sealed with gas-permeable foils. After incubation, OD490 values were measured using 96-well plate reader and growth capacity was analyzed by setting the corresponding control to 100%.
# For synergy testing of different combinations, checkerboard assays were performed. Therefore, serial dilutions of two different compounds were combined for MIC, BIC or BEC testing as described above. Antifungal activity of substances alone or in combination was determined by setting the corresponding control to 100%.
# [6] = test system: C. albicans biofilms; assay: Checkerboard assay, biofilm inhibition (CTB staining); type: cell-based, Candida albicans
# Procedure: The biofilm inhibition concentration (BIC) was determined as described in Delattin N et al. (J Antimicrob Chemother 69(2014): 1035-1044). In short, RPMI medium was inoculated with an overnight culture to an OD (optical density) of 0.1, transferred to a U-bottom 96-well plate (MLS, Belgium) and treated with serial dilutions of substances. After the adherence phase (1 h, 37° C.), supernatant was removed, adherent cells were washed with PBS and fresh media (including substances) was added. Biofilms were then allowed to grow for 24 h at 37° C.
# Formed biofilms were then analyzed for their metabolic activity. Therefore, C. albicans biofilm cells were treated with CTB (cell titer Blue®; Promega, Germany), diluted 1:100 in PBS. After incubation for 1 h at 37° C. in the dark fluorescence intensity was measured using a 96-well plate reader (Ex: 535, Em: 590, sens 65). For C. glabrata, XTT (2H-Tetrazolium, 2,3-bis(2-methoxy-4-nitro-5-sulfophenyl)-5-[(phenylamino)carbonyl]-hydroxide; Sigma, Germany or ABCR, Germany) was used instead. Thereby, biofilm cells were treated with an XTT solution (0.25 mg/mL XTT+0.1 μM menadione in PBS) at 37° C. in the dark and OD490 was measured.
# For synergy testing of different combinations, checkerboard assays were performed. […] Antifungal activity of substances alone or in combination was determined by setting the corresponding control to 100%.
# [7] = test system: C. albicans SC5314; assay: C. elegans infection model, worm survival; type: in vivo
# Procedure: The C. elegans Δglp-4 Δsek-1 strain (generously provided by Valerie Defraine, Centre of Microbial and Plant Genetics, KU Leuven, Belgium) was used for in vivo testing of antifungal activity. Worms were maintained on NGM plates (nematode growth medium; 2.5 g/L Bacto Peptone, 3 g/L NaCl, 17 g/L agar, supplemented with 5 mg/L cholesterol, 1 mM CaCl2), 1 mM MgSO4 and 25 mM KPO4 buffer pH 6.0), seeded with a thin layer of E. coli OP50, at 16° C. and worms were chunked onto fresh plates every three to four days.
# Egg collecting was performed by bleaching according to Stiernagle T (“Maintenance of C. elegans”. WormBook. doi: 10.1895/wormbook.1.101 (2006)) and Porta-de-la-Riva M et al. JoVE 64(2012): e4019-e4019). In short, adult worms were collected from plates and treated with a bleaching solution (10 mL household bleach+5 mL 5M NaOH), thereby worms disintegrate and eggs are released. After vigorous shaking for 5 min, M9 medium (3 g/L KH2PO4, 6 g/L Na2HPO4, 5 g/L NaCl, supplemented with 1.25 mM MgSO4) was added and worms were immediately put on ice. After three washing steps, residual eggs were incubated in M9 medium over night at 16° C. on a tube roller. The next day, eggs were collected, transferred onto fresh NGM/OP50 plates and incubated at 25° C. for 3-4 days until nematodes have reached the L3/L4 stage prior to infection.
# Synchronized (L3/L4 stage) worms were collected, washed three times with M9 media and spotted onto prepared YPD plates with a thin layer of C. albicans SC5314. […]
# For efficacy testing of compounds, 750 μL of the worm suspension were transferred into each well of a 24-well plate and substances were added at indicated concentrations (1% DMSO). Nematodes were immediately counted (t0) and survival was monitored over five days post infection by counting living worms.
# To verify the antifungal potential of DHF in vivo, the well-established C. elegans infection model (Breger J, et al. (2007) PLOS Pathog. 3(2): e18.) was used. […] Survival of infected as well as non-infected nematodes was monitored daily over the time period of 5 days (FIG. 2A). […]
# [8] = C. glabrata biofilm formation reduced to 50% of untreated control
smiles,measurement,setting,value
"O=c1c(O)c(-c2ccccc2O)oc2ccccc12 [2′,3-dihydroxyflavone]",MIC50,[1],53.9 ± 2.1 µM
same,IC50,[2]; [8],124 ± 34.7 µM
"O=c1c(O)c(-c2cccc(O)c2)oc2ccccc12 [3,3′-dihydroxyflavone]",MIC50,[3],254 ± 68.5 µM
same,MIC50,[1],5.9 ± 0.1 µM
same,IC50,[2]; [8],21.5 ± 3.6 µM
"O=c1c(O)c(-c2ccccc2)oc2ccc(O)cc12 [3,6-dihydroxyflavone]",IC50,[4],55.2 ± 8.1 µM
same,MIC50,[3],9.5 ± 0.1 µM
same,"effect on activity of caspofungin, growth of planktonic cells","[5]; 4.9 nM Caspo, 5 μM 3,6-DHF, preliminary data",enhances the activity of Caspofungin
same,effect on activity of azoles in vitro (growth inhibition),"[5]; 3.1 μM 3,6-DHF with 0.4 μM miconazole or 0.5 μM fluconazole",enhances the activity of azoles
same,MIC50,[1],7.9 ± 1 µM
same,IC50,[2]; [8],23.4 ± 9.7 µM
same,"effect on activity of caspofungin, biofilm formation","[6]; 39 nM Caspo, 3.1 μM 3,6-DHF",enhances the activity of Caspofungin
same,combination with AMB on biofilms in vitro,"[6]; 0.16 μM AMB, 25 μM 3,6-DHF",acts synergistically with AMB
same,effect on activity of azoles in vivo (worm survival),"[7]; 25 μM 3,6-DHF with 0.125 μM miconazole or 0.5 μM fluconazole, 5 days",enhances the activity of azoles
same,effect on antifungal activity of AMB in vivo (worm survival),"[7]; 25 μM 3,6-DHF with 0.5 μM AMB, 5 days",enhances the antifungal activity of AMB
same,worms still alive at day 5 post infection,"[7]; 50 μM DHF, single application immediately after infection, infected control 20.5%",45.7%
"O=c1c(O)c(-c2ccccc2)oc2cc(O)ccc12 [3,7-dihydroxyflavone]",IC50,[2],62.5 ± 26 µM
O=c1c(O)c(-c2ccccc2)oc2ccccc12 [3-hydroxyflavone],MIC50,[1],6.2 ± 0.2 µM
"O=c1cc(-c2ccc(O)c(O)c2)oc2cc(O)ccc12 [3′,4′,7-trihydroxyflavone]",antimycotic effect in combination with other known antimycotics,[5],synergistic antimycotic effect
same,"effect on antifungal activity of azole antifungals (growth, OD490)",[5],enhance the antifungal activity of azole antifungals
"O=c1cc(-c2ccc(O)c(O)c2)oc2ccccc12 [3′,4′-dihydroxyflavone]",IC50,[4],147 ± 17.3 µM
same,"effect on antifungal activity of antimycotics (growth, OD490)","[5]; 12.5-25 μM 3′,4′-DHF with miconazole, fluconazole, ketoconazole or clotrimazole",enhances the antifungal activity of antimycotics
same,antimycotic effect in combination with other known antimycotics,[5],synergistic antimycotic effect
O=c1cc(-c2cccc(O)c2)oc2ccccc12 [3′-hydroxyflavone],IC50,[2]; [8],26.7 ± 3 µM
"O=c1cc(-c2ccc(O)cc2)oc2cccc(O)c12 [4′,5-dihydroxyflavone, reference compound]",IC50,[4],> 400 µM
same,MIC50,[3],> 400 µM
same,MIC50,[1],> 400 µM
same,IC50,[2]; [8],> 400 µM
"O=c1cc(-c2ccccc2)oc2cc(O)cc(O)c12 [5,7-dihydroxyflavone, reference compound]",IC50,[4],> 400 µM
same,MIC50,[3],> 400 µM
same,MIC50,[1],> 400 µM
same,IC50,[2]; [8],> 400 µM
"O=c1cc(-c2ccccc2)oc2cc(O)c(O)cc12 [6,7-dihydroxyflavone]",MIC50,[1],15.7 ± 4.1 µM
same,IC50,[2]; [8],41.7 ± 9.1 µM
O=c1cc(-c2ccccc2)oc2ccc(O)cc12 [6-hydroxyflavone],IC50,[2]; [8],129 ± 14.2 µM
O=c1cc(-c2ccccc2)oc2cc(O)ccc12 [7-hydroxyflavone],IC50,[2],17.4 ± 7 µM
"O=c1cc(-c2ccc(O)c(O)c2)oc2cc(O)cc(O)c12 [luteolin, 3′,4′,5,7-tetrahydroxyflavone]",antimycotic effect in combination with other known antimycotics,[5],synergistic antimycotic effect
same,"effect on antifungal activity of azole antifungals (growth, OD490)",[5],enhance the antifungal activity of azole antifungals

# Reference: patent US20220249431A1, “ANTIMYCOTIC” (Karl-Franzens-Universität Graz, priority 2019, published 2022)
